# Columns and labels:
# Format in all cases: in vivo
# [1] = tested on: TH (tyrosine hydroxylase); test: CNS phosphoprotein profile, TH; conditions: mice nucleus accumbens; Example 1 3 mg/kg at 30 or 60 minutes; haloperidol 2 mg/kg
# Procedure: A comprehensive molecular phosphorylation study is also carried out to examine the central nervous system (CNS) profile of the compound of Example 1. The extent of protein phosphorylation for selected key central nervous system proteins is measured in mice nucleus accumbens.
# Mice were killed 30 minutes to 2 hours post-injection by focused microwave cranial irradiation, which preserves brain phosphoprotein as it exists at the time of death. Nucleus accumbens was then dissected from each mouse brain, sliced and frozen in liquid nitrogen. Samples were further prepared for phosphoprotein analysis via SDS-PAGE electrophoresis followed by phosphoprotein-specific immunoblotting, as described in Zhu H, et al., Brain Res. 2010 Jun. 25; 1342:11-23. Phosphorylation at each site was quantified, normalized to total levels of the protein (non-phosphorylated), and expressed as percent of the level of phosphorylation in vehicle-treated control mice.
# ZFD rats [2] = test: ZFD rat model, electronic von Frey (paw pressure); design: unit not given here
# Procedure: (§1) Forty (40) adult, male […] rats weighing 225-275 g at the start of the study are used in these experiments, including ten (10) lean, controls and thirty (30) ZFD rats. Animals are maintained in the vivarium at a controlled room temperature between 65 to 85° F. and a relative humidity between 30-70% under illumination by fluorescent lighting on a daily 12-hour light/dark cycle. All animals are maintained 2 per cage with free access to dry food and water.
# Paw pressure response threshold: This test applies greater force to the plantar hind paw than manual von Frey filaments and may be equated to pressure-induced pain such as that described by diabetic subjects upon standing and walking. Hyperalgesia to this measure develops over several weeks in ZFD rats such that this test can give an assessment of hyperalgesia and drug efficacy that differs from the allodynia measured by manual von Frey filaments. The method is described in detail by Lee-Kubil, Mixcoati-Zecuatl, Jolivalt, & Calcutt, Animal Models of Diabetes-Induced Neuropathic Pain, CURRENT TOPICS IN BEHAVIORAL NEUROSCIENCES 20: 147-170 (2014).
# (§2) Dosing procedures. Zucker Fatty Diabetic rats are found to develop hyperglycemia over 6-8 weeks. […] Upon confirmation of the presence of painful neuropathy, rats are tested for three measures of hyperalgesia: cold allodynia threshold, tactile hyperalgesia (von Frey filaments), and pressure responses measured by a mechanical von Frey device. All rats are tested in all three assays and all rats receive each of four (4) pre-treatments administered subcutaneously (s.c.) in a vehicle of 10% Trappsol in water. All rats receive treatments in the same order, as follows: vehicle, 1 mg/kg Compound of Ex. 1, 3 mg/kg Compound of Ex. 1, and 10 mg/kg Compound of Ex. 1. Rats receive pre-treatments 30 minutes prior to the start of testing. Hyperalgesia/allodynia measures are recorded from each rat at baseline (0 time), then 1, 2, 3, 4, and 6 h after treatment.
# (§3) After the completion of testing of all rats at all dose/conditions for each assay (cold, tactile, and pressure responses) rats are out-fitted with cannulas for intrathecal (i.t.) application of vehicle or Compound of Ex. 1 (1, 3 or 10 μg) directly to spinal cord. All rats are then re-tested in each of the tree assays at each of the 4 pretreatment conditions/doses.
# ZFD rats [3] = test: ZFD rat model, paw cold response
# Procedure: as §1
# Paw cold response threshold: This test replicates the clinical test of cold pain perception threshold. Rats are transferred to a testing cage with a wire mesh bottom and allowed to acclimate. A rigid filament attached to a Peltier thermoelectric cooling system is used to stimulate the plantar surface of the hind paw for 5 seconds. The stimulus is repeated 10 times at 2 to 5 minute intervals and the number of paw withdrawal responses is recorded and converted to a response frequency (%). This paradigm is repeated at various stimulation temperatures.
# as §2, §3
# [4] = Control rats, 10 mg/kg s.c., 0 hr
# [5] = Control rats, 10 mg/kg s.c., 1 hr
# [6] = Control rats, 10 mg/kg s.c., 2 hr
# [7] = Control rats, 10 mg/kg s.c., 4 hr
structure (smiles),measurement,setting,value
"O=C1CN2c3c(cccc3[C@@H]3CN(CCCOc4ccc(F)cc4)CC[C@@H]32)N1 [Example 1, (6bR,10aS)-8-(3-(4-fluorophenoxy)propyl)-6b,7,8,9,10,10a-hexahydro-1H-pyrido[3′,4′:4,5]pyrrolo[1,2,3-de]quinoxalin-2(3H)-one]",increase in TH phosphorylation at Ser40,[1],no significant effect
same,Electronic von Frey (paw pressure response),"ZFD rats [2]; Control rats, 10 μg i.t., 0 hr",63.68
same,Electronic von Frey (paw pressure response),"ZFD rats [2]; Control rats, 10 μg i.t., 1 hr",60.91
same,Electronic von Frey (paw pressure response),"ZFD rats [2]; Control rats, 10 μg i.t., 2 hr",62.10
same,Electronic von Frey (paw pressure response),"ZFD rats [2]; Control rats, 10 μg i.t., 4 hr",59.56
same,Electronic von Frey (paw pressure response),ZFD rats [2]; [4],58.64
same,Electronic von Frey (paw pressure response),ZFD rats [2]; [5],55.73
same,Electronic von Frey (paw pressure response),ZFD rats [2]; [6],60.74
same,Electronic von Frey (paw pressure response),ZFD rats [2]; [7],62.89
same,Electronic von Frey (paw pressure response),"ZFD rats [2]; ZFD rats, 1 μg i.t., 0 hr",24.76
same,Electronic von Frey (paw pressure response),"ZFD rats [2]; ZFD rats, 1 μg i.t., 1 hr",34.77
same,Electronic von Frey (paw pressure response),"ZFD rats [2]; ZFD rats, 1 μg i.t., 2 hr",30.09
same,Electronic von Frey (paw pressure response),"ZFD rats [2]; ZFD rats, 1 μg i.t., 4 hr",28.19
same,Electronic von Frey (paw pressure response),"ZFD rats [2]; ZFD rats, 3 μg i.t., 0 hr",33.23
same,Electronic von Frey (paw pressure response),"ZFD rats [2]; ZFD rats, 3 μg i.t., 1 hr",53.94
same,Electronic von Frey (paw pressure response),"ZFD rats [2]; ZFD rats, 3 μg i.t., 2 hr",50.17
same,Electronic von Frey (paw pressure response),"ZFD rats [2]; ZFD rats, 3 μg i.t., 4 hr",39.95
same,Electronic von Frey (paw pressure response),"ZFD rats [2]; ZFD rats, 10 μg i.t., 0 hr",24.68
same,Electronic von Frey (paw pressure response),"ZFD rats [2]; ZFD rats, 10 μg i.t., 1 hr",46.37
same,Electronic von Frey (paw pressure response),"ZFD rats [2]; ZFD rats, 10 μg i.t., 2 hr",45.01
same,Electronic von Frey (paw pressure response),"ZFD rats [2]; ZFD rats, 10 μg i.t., 4 hr",32.33
same,Electronic von Frey (paw pressure response),"ZFD rats [2]; ZFD rats, 1 mg/kg s.c., 0 hr",28.36
same,Electronic von Frey (paw pressure response),"ZFD rats [2]; ZFD rats, 1 mg/kg s.c., 1 hr",32.99
same,Electronic von Frey (paw pressure response),"ZFD rats [2]; ZFD rats, 1 mg/kg s.c., 2 hr",27.35
same,Electronic von Frey (paw pressure response),"ZFD rats [2]; ZFD rats, 1 mg/kg s.c., 4 hr",24.67
same,Electronic von Frey (paw pressure response),"ZFD rats [2]; ZFD rats, 3 mg/kg s.c., 0 hr",33.72
same,Electronic von Frey (paw pressure response),"ZFD rats [2]; ZFD rats, 3 mg/kg s.c., 1 hr",54.21
same,Electronic von Frey (paw pressure response),"ZFD rats [2]; ZFD rats, 3 mg/kg s.c., 2 hr",58.41
same,Electronic von Frey (paw pressure response),"ZFD rats [2]; ZFD rats, 3 mg/kg s.c., 4 hr",30.01
same,Electronic von Frey (paw pressure response),"ZFD rats [2]; ZFD rats, 10 mg/kg s.c., 0 hr",22.69
same,Electronic von Frey (paw pressure response),"ZFD rats [2]; ZFD rats, 10 mg/kg s.c., 1 hr",56.02
same,Electronic von Frey (paw pressure response),"ZFD rats [2]; ZFD rats, 10 mg/kg s.c., 2 hr",58.15
same,Electronic von Frey (paw pressure response),"ZFD rats [2]; ZFD rats, 10 mg/kg s.c., 4 hr",39.32
same,Cold Test response frequency,"ZFD rats [3]; Control rats, 10 μg i.t., 0 hr",17%
same,Cold Test response frequency,"ZFD rats [3]; Control rats, 10 μg i.t., 1 hr",11%
same,Cold Test response frequency,"ZFD rats [3]; Control rats, 10 μg i.t., 2 hr",20%
same,Cold Test response frequency,"ZFD rats [3]; Control rats, 10 μg i.t., 4 hr",14%
same,Cold Test response frequency,ZFD rats [3]; [4],16%
same,Cold Test response frequency,ZFD rats [3]; [5],18%
same,Cold Test response frequency,ZFD rats [3]; [6],10%
same,Cold Test response frequency,ZFD rats [3]; [7],10%
same,Cold Test response frequency,"ZFD rats [3]; ZFD rats, 1 μg i.t., 0 hr",93%
same,Cold Test response frequency,"ZFD rats [3]; ZFD rats, 1 μg i.t., 1 hr",90%
same,Cold Test response frequency,"ZFD rats [3]; ZFD rats, 1 μg i.t., 2 hr",83%
same,Cold Test response frequency,"ZFD rats [3]; ZFD rats, 1 μg i.t., 4 hr",83%
same,Cold Test response frequency,"ZFD rats [3]; ZFD rats, 3 μg i.t., 0 hr",77%
same,Cold Test response frequency,"ZFD rats [3]; ZFD rats, 3 μg i.t., 1 hr",37%
same,Cold Test response frequency,"ZFD rats [3]; ZFD rats, 3 μg i.t., 2 hr",27%
same,Cold Test response frequency,"ZFD rats [3]; ZFD rats, 3 μg i.t., 4 hr",70%
same,Cold Test response frequency,"ZFD rats [3]; ZFD rats, 10 μg i.t., 0 hr",93%
same,Cold Test response frequency,"ZFD rats [3]; ZFD rats, 10 μg i.t., 1 hr",33%
same,Cold Test response frequency,"ZFD rats [3]; ZFD rats, 10 μg i.t., 2 hr",33%
same,Cold Test response frequency,"ZFD rats [3]; ZFD rats, 10 μg i.t., 4 hr",77%
same,Cold Test response frequency,"ZFD rats [3]; ZFD rats, 1 mg/kg s.c., 0 hr",88%
same,Cold Test response frequency,"ZFD rats [3]; ZFD rats, 1 mg/kg s.c., 1 hr",96%
same,Cold Test response frequency,"ZFD rats [3]; ZFD rats, 1 mg/kg s.c., 2 hr",94%
same,Cold Test response frequency,"ZFD rats [3]; ZFD rats, 1 mg/kg s.c., 4 hr",86%
same,Cold Test response frequency,"ZFD rats [3]; ZFD rats, 3 mg/kg s.c., 0 hr",88%
same,Cold Test response frequency,"ZFD rats [3]; ZFD rats, 3 mg/kg s.c., 1 hr",32%
same,Cold Test response frequency,"ZFD rats [3]; ZFD rats, 3 mg/kg s.c., 2 hr",26%
same,Cold Test response frequency,"ZFD rats [3]; ZFD rats, 3 mg/kg s.c., 4 hr",90%
same,Cold Test response frequency,"ZFD rats [3]; ZFD rats, 10 mg/kg s.c., 0 hr",90%
same,Cold Test response frequency,"ZFD rats [3]; ZFD rats, 10 mg/kg s.c., 1 hr",28%
same,Cold Test response frequency,"ZFD rats [3]; ZFD rats, 10 mg/kg s.c., 2 hr",16%
same,Cold Test response frequency,"ZFD rats [3]; ZFD rats, 10 mg/kg s.c., 4 hr",48%

# Source: patent US20220184072A1 (priority 2019, published 2022)
